In US4471131A, “Novel silyl esters of N-phosphonomethylglycine” (Monsanto Company, priority 1983, dated 1984):

Tests used:
Test in all cases: post-emergence herbicidal activity, greenhouse
Assay type in all cases: in vivo
Pennsylvania Smartweed = tested on: Pennsylvania Smartweed
From the text: (§1) A good grade of top soil is placed in aluminum pans having holes in the bottom and compacted to a depth of 0.95 to 1.27 cm. from the top of the pan. A predetermined number of seeds of each of several dicotyledonous and moncotyledonous annual plant species and/or vegetative propagules for the perennial plant species were placed on the soil and pressed into the soil surface. The seeds and/or vegetative propagules are covered with soil and leveled. The pans are then placed on a sand bench in the greenhouse and watered from below as needed. After the plants reach the desired age (two to three weeks), each pan, except for the control pans, is removed individually to a spraying chamber and sprayed by means of an atomizer at the rates noted. In the spray solution is an amount of an emulsifying agent mixture to give a spray solution or suspension which contains about 0.4% by weight of the emulsifier. The spray solution or suspension contains a sufficient amount of the candidate chemical in order to give application rates corresponding to those set forth in the tables. The pans were returned to the greenhouse and watered as before and the injury to the plants as compared to the control is observed at approximately two and four weeks and the results recorded. In the tables, WAT means "weeks after treatment."
(§2) The post-emergent herbicidal activity index used in Tables II and III is as follows:
(§3) The plant species utilized in these tests are identified by letter in accordance with the following legend: […]

Canada Thistle = details: Table II, 11.2 kg/h, formulated immediately prior to treatment
From the text: as §1, §2, §3

Downy Brome = tested on: Downy Brome
From the text: as §1, §2, §3

Rice = details: Table III, 2 WAT
From the text: as §1, §2, §3

Yellow Nutsedge = details: Table II, 11.2 kg/h, formulated immediately prior to treatment
From the text: as §1, §2, §3

Morningglory = tested on: Morningglory
From the text: as §1, §2, §3

Common Lambsquarters = tested on: Common Lambsquarters
From the text: as §1, §2, §3

Hemp Sesbania = details: Table III, 2 WAT
From the text: as §1, §2, §3

Large Crabgrass = details: Table III, 2 WAT
From the text: as §1, §2, §3

Quackgrass = details: Table II, 11.2 kg/h, formulated immediately prior to treatment
From the text: as §1, §2, §3

Cocklebur = tested on: Cocklebur
From the text: as §1, §2, §3

Johnsongrass = details: Table II, 11.2 kg/h, formulated immediately prior to treatment
From the text: as §1, §2, §3

Barnyardgrass = tested on: Barnyardgrass
From the text: as §1, §2, §3

Sugar Beet = details: Table III, 2 WAT
From the text: as §1, §2, §3

Panicum Spp = details: Table III, 2 WAT
From the text: as §1, §2, §3

Velvetleaf = tested on: Velvetleaf
From the text: as §1, §2, §3

Wild Buckwheat = details: Table III, 2 WAT
From the text: as §1, §2, §3

Soybean = details: Table III, 2 WAT
From the text: as §1, §2, §3

[1] = Table II, 2 WAT, 11.2 kg/h, formulated immediately prior to treatment
[2] = Table II, 4 WAT, 11.2 kg/h, formulated immediately prior to treatment

Structure (SMILES): CC(C)OC(=O)CNCP(=O)(O[Si](c1ccccc1)(c1ccccc1)C(C)(C)C)O[Si](c1ccccc1)(c1ccccc1)C(C)(C)C [Ex. 1]
- Plant Response Index (F) (Pennsylvania Smartweed; [1]): 3 (75-99% inhibition)
- Plant Response Index (F) (Pennsylvania Smartweed; [2]): 3 (75-99% inhibition)
- Plant Response Index (F) (Pennsylvania Smartweed; Table III, 2 WAT, 1.1 kg/h): 0 (0-24% inhibition)
- Plant Response Index (F) (Pennsylvania Smartweed; Table III, 2 WAT, 5.6 kg/h): 3 (75-99% inhibition)
- Plant Response Index (A) (Canada Thistle; 2 WAT): 0 (0-24% inhibition)
- Plant Response Index (A) (Canada Thistle; 4 WAT): 1 (25-49% inhibition)
- Plant Response Index (J) (Downy Brome; [1]): 1 (25-49% inhibition)
- Plant Response Index (J) (Downy Brome; [2]): 1 (25-49% inhibition)
- Plant Response Index (J) (Downy Brome; Table III, 2 WAT, 1.1 kg/h): 0 (0-24% inhibition)
- Plant Response Index (J) (Downy Brome; Table III, 2 WAT, 5.6 kg/h): 3 (75-99% inhibition)
- Plant Response Index (O) (Rice; 1.1 kg/h): 0 (0-24% inhibition)
- Plant Response Index (O) (Rice; 5.6 kg/h): 3 (75-99% inhibition)
- Plant Response Index (G) (Yellow Nutsedge; 2 WAT): 1 (25-49% inhibition)
- Plant Response Index (G) (Yellow Nutsedge; 4 WAT): 2 (50-74% inhibition)
- Plant Response Index (D) (Morningglory; [1]): 1 (25-49% inhibition)
- Plant Response Index (D) (Morningglory; [2]): 2 (50-74% inhibition)
- Plant Response Index (D) (Morningglory; Table III, 2 WAT, 1.1 kg/h): 0 (0-24% inhibition)
- Plant Response Index (D) (Morningglory; Table III, 2 WAT, 5.6 kg/h): 2 (50-74% inhibition)
- Plant Response Index (E) (Common Lambsquarters; [1]): 0 (0-24% inhibition)
- Plant Response Index (E) (Common Lambsquarters; [2]): 0 (0-24% inhibition)
- Plant Response Index (E) (Common Lambsquarters; Table III, 2 WAT, 1.1 kg/h): 0 (0-24% inhibition)
- Plant Response Index (E) (Common Lambsquarters; Table III, 2 WAT, 5.6 kg/h): 3 (75-99% inhibition)
- Plant Response Index (R) (Hemp Sesbania; 1.1 kg/h): 0 (0-24% inhibition)
- Plant Response Index (R) (Hemp Sesbania; 5.6 kg/h): 2 (50-74% inhibition)
- Plant Response Index (T) (Large Crabgrass; 1.1 kg/h): 2 (50-74% inhibition)
- Plant Response Index (T) (Large Crabgrass; 5.6 kg/h): 4 (100% inhibition)
- Plant Response Index (H) (Quackgrass; 2 WAT): 0 (0-24% inhibition)
- Plant Response Index (H) (Quackgrass; 4 WAT): 1 (25-49% inhibition)
- Plant Response Index (B) (Cocklebur; [1]): 1 (25-49% inhibition)
- Plant Response Index (B) (Cocklebur; [2]): 1 (25-49% inhibition)
- Plant Response Index (B) (Cocklebur; Table III, 2 WAT, 1.1 kg/h): 0 (0-24% inhibition)
- Plant Response Index (B) (Cocklebur; Table III, 2 WAT, 5.6 kg/h): 2 (50-74% inhibition)
- Plant Response Index (I) (Johnsongrass; 2 WAT): 0 (0-24% inhibition)
- Plant Response Index (I) (Johnsongrass; 4 WAT): 2 (50-74% inhibition)
- Plant Response Index (K) (Barnyardgrass; [1]): 2 (50-74% inhibition)
- Plant Response Index (K) (Barnyardgrass; [2]): 3 (75-99% inhibition)
- Plant Response Index (K) (Barnyardgrass; Table III, 2 WAT, 1.1 kg/h): 1 (25-49% inhibition)
- Plant Response Index (K) (Barnyardgrass; Table III, 2 WAT, 5.6 kg/h): 4 (100% inhibition)
- Plant Response Index (M) (Sugar Beet; 1.1 kg/h): 1 (25-49% inhibition)
- Plant Response Index (M) (Sugar Beet; 5.6 kg/h): 3 (75-99% inhibition)
- Plant Response Index (S) (Panicum Spp; 1.1 kg/h): 0 (0-24% inhibition)
- Plant Response Index (S) (Panicum Spp; 5.6 kg/h): 3 (75-99% inhibition)
- Plant Response Index (C) (Velvetleaf; [1]): 0 (0-24% inhibition)
- Plant Response Index (C) (Velvetleaf; [2]): 1 (25-49% inhibition)
- Plant Response Index (C) (Velvetleaf; Table III, 2 WAT, 1.1 kg/h): 0 (0-24% inhibition)
- Plant Response Index (C) (Velvetleaf; Table III, 2 WAT, 5.6 kg/h): 2 (50-74% inhibition)
- Plant Response Index (Q) (Wild Buckwheat; 1.1 kg/h): 0 (0-24% inhibition)
- Plant Response Index (Q) (Wild Buckwheat; 5.6 kg/h): 3 (75-99% inhibition)
- Plant Response Index (L) (Soybean; 1.1 kg/h): 0 (0-24% inhibition)
- Plant Response Index (L) (Soybean; 5.6 kg/h): 1 (25-49% inhibition)
